Values of other authors in patent US7494643B2, “Method and topical composition for the treatment of hyperpigmented skin” (priority 2003, dated 2009).

Key:
mushroom-tyrosinases = settings: competitive inhibition; cited from earlier work
human-tyrosinase = target: T1, human-tyrosinase (Homo sapiens, UniProt P14679); settings: competitive inhibition; cited from earlier work
T1 sequence (P14679 19-529): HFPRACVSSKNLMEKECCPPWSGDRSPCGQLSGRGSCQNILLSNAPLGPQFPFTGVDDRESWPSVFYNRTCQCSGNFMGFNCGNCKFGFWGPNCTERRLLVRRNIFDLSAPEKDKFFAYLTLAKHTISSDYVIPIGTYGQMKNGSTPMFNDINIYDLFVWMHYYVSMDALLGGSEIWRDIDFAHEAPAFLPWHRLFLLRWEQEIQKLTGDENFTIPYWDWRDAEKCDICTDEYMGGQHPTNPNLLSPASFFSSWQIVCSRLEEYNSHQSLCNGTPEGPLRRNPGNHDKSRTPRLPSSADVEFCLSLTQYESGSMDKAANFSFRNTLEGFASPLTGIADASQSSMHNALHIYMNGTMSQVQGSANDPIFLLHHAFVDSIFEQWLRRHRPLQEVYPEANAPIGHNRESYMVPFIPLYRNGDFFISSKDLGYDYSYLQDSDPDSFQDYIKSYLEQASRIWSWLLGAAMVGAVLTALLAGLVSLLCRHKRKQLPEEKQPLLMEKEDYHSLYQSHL

[1] = system: tyrosinase isolated from black goldfish and standard goldfish; settings: cited from earlier work
black goldfish = settings: ingested by the fish; cited from earlier work
cultured pigment cells = settings: cited from earlier work
melanocytes = settings: cited from earlier work
HIV = settings: NCI primary screen; cited from earlier work

## OC[C@H]1O[C@@H](Oc2ccc(O)cc2)[C@H](O)[C@@H](O)[C@@H]1O [Arbutin]
mushroom-tyrosinases
  inhibition of enzyme activity of mushroom tyrosinase: inhibits enzyme activity
human-tyrosinase
  inhibition of enzyme activity of human tyrosinase: inhibits enzyme activity

## O=c1cc(CO)occ1O [Kojic acid]
[1]
  inhibition of tyrosinase: inhibit tyrosinase
Black goldfish
  colour of black goldfish after ingestion: almost yellow-brown
Cultured pigment cells
  suppression of melanogenesis: suppress melanogenesis

## Oc1ccc(O)cc1 [hydroquinone]
melanocytes
  cytotoxicity (destroys the cellular walls of the melanocytes): cytotoxic

## Vismiaphenone D
HIV
  HIV-inhibitory activity: HIV-inhibitory activity
